Patent US20240180838A1, “NANOPARTICLE (NP) COMPOSITIONS AND METHODS OF USE THEREOF” (RUTGERS, THE STATE UNIVERSITY OF NEW JERSEY, priority 2022, published 2024)
Converted amounts (≈) assume the structure as drawn.

How the values were obtained:
S. aureus = details: as reported in the literature; cited from earlier work
[1] = Thermogravimetric analysis, thermal stability; type: physicochemical; details: TG curve
Protocol: The amount of RFX loaded in DAMO/SBA is carefully determined by comparing the thermogravimetric (TG) traces of RFX/SBA and its parent material (DAMO-SBA), after normalizing the weight losses of the two curves at 100° C. (i.e., the temperature at which physisorbed water should be completely evaporated) (FIGS. 4A-4B). The comparison is done at 750° C., after most organic groups are removed from the samples. […] The decomposition profiles for pure RFX and copper(II) acetate, which is the salt used to immobilize Cu(II) ions into the material. As expected, RFX completely decomposes after 500° C. as it comprises mostly organic groups.

## CC[C@H]1OC(=O)[C@H](C)[C@@H](O[C@H]2C[C@@](C)(OC)[C@@H](O)[C@H](C)O2)[C@H](C)[C@@H](O[C@@H]2O[C@H](C)C[C@H](N(C)C)[C@H]2O)[C@](C)(O)C[C@@H](C)C(=O)[C@H](C)[C@@H](O)[C@]1(C)O [ERM, erythromycin]
S. aureus
  Minimum inhibitory concentrations (MICs): 32 µg/mL (≈ 43.6 µM)

## O=C(Nc1ccc(Oc2ccc(Cl)cc2)c(Cl)c1)c1cc(I)cc(I)c1O [RFX, N-[3-Chloro-4-(4-chlorophenoxy)phenyl]-2-hydroxy-3,5-diiodobenzamide]
[1]
  onset temperature of degradation: 200 °C

## COc1cc(Cc2cnc(N)nc2N)cc(OC)c1OC [TRM, trimethoprim]
S. aureus
  Minimum inhibitory concentrations (MICs): 0.19 µg/mL (≈ 0.654 µM)
